Experimental data from patent US9790215B2 (FLATLEY DISCOVERY LAB, LLC, priority 2013, dated 2017).

target: T1, human ΔF508-CFTR (Homo sapiens, UniProt P13569, DEL508-508); assay: CFTR-YFP High Throughput Assay (YFP halide flux in FRT cells); assay type: cell-based; conditions: FRT cells expressing human ΔF508-CFTR and YFP; Emax normalized to the positive control
T1 construct: expressed in transfected cells
Summary of the method: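 FRT cells stably co-expressing human ΔF508-CFTR and halide-sensitive YFP-H148Q/I152L were treated with compound […] for 24–26 h at 37 °C (corrector mode), washed, then stimulated with 20 μM forskolin plus 30 μM potentiator P3 for 60–120 min at room temperature. Iodide-induced YFP quench (ex 500/em 540 nm) rates came from least-squares fitting.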

T1 sequence (P13569 with tags, fused parts or gaps DEL508-508): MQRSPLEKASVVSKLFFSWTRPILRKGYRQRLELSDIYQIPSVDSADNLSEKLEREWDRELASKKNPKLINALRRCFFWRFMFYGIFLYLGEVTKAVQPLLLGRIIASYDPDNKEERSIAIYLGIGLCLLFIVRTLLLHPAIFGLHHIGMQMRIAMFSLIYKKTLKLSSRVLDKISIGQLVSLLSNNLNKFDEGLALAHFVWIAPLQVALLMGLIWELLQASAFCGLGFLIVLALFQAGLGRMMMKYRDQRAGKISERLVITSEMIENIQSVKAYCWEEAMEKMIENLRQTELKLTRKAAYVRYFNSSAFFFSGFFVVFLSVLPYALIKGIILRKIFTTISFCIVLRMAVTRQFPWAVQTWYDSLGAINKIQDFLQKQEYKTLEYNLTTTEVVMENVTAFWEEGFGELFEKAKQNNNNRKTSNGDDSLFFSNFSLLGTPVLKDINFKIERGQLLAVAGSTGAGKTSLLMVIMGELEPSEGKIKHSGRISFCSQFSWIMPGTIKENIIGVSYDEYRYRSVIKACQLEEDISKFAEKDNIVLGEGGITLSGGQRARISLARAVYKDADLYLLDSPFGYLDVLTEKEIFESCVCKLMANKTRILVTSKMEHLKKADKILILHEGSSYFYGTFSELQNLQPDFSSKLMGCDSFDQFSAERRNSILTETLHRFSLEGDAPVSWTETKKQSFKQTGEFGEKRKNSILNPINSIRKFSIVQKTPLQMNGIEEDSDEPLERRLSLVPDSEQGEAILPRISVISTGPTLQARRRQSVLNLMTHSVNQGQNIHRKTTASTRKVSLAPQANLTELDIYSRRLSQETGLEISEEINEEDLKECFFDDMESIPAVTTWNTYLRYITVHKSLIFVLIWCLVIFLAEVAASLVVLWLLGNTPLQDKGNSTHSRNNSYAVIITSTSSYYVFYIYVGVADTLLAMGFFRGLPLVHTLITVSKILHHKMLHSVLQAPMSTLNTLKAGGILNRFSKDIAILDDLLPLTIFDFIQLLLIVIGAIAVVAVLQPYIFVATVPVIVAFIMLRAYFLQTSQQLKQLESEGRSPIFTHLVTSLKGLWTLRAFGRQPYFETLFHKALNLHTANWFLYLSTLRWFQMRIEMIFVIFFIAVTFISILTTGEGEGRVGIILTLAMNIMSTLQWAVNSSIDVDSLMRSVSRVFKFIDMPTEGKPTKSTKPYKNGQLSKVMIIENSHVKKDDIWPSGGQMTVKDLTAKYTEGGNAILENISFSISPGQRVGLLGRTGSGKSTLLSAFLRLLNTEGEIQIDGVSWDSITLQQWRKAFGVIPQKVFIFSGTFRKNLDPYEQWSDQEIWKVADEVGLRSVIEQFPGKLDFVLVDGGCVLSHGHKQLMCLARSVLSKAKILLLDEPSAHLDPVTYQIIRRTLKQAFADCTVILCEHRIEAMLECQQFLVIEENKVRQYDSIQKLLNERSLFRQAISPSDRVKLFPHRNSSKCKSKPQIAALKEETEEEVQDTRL

Molecule | % Efficacy (Emax normalized to the positive control)
4-(3-(2-(ethyl(4-ethylphenyl)amino)-2-oxoethyl)-4-oxo-3,4-dihydrophthalazin-1-yl)benzoic acid [Example 13] | ++ (a range of 80%-30%)
CCN(C(=O)c1nn(-c2ccccc2F)c(=O)c2c1c1ccccc1n2C)c1ccccc1 [Example 127, N-ethyl-3-(2-fluorophenyl)-5-methyl-4-oxo-N-phenyl-4,5-dihydro-3H-pyridazino[4,5-b]indole-1-carboxamide] | +++ (EMAX > 80%)

same assay, conditions: FRT cells expressing human ΔF508-CFTR and YFP; forskolin stimulated

Molecule | EC50 [µM]
4-(3-(2-(ethyl(4-ethylphenyl)amino)-2-oxoethyl)-4-oxo-3,4-dihydrophthalazin-1-yl)benzoic acid [Example 13] | 10 to 20
CCN(C(=O)c1nn(-c2ccccc2)c(=O)c2c1c1ccccc1n2C)c1cccc(Cl)c1 [Example 132, N-(3-chlorophenyl)-N-ethyl-5-methyl-4-oxo-3-phenyl-4,5-dihydro-3H-pyridazino[4,5-b]indole-1-carboxamide] | < 10
CCN(C(=O)c1nn(-c2ccc(C)cc2)c(=O)c2c1c1ccccc1n2C(C)C)c1ccccc1 [Example 152, N-ethyl-5-isopropyl-4-oxo-N-phenyl-3-(p-tolyl)-4,5-dihydro-3H-pyridazino[4,5-b]indole-1-carboxamide] | > 20
CCN(C(=O)c1nn(-c2ccccc2F)c(=O)c2c1c1ccccc1n2C)c1ccccc1 [Example 127, N-ethyl-3-(2-fluorophenyl)-5-methyl-4-oxo-N-phenyl-4,5-dihydro-3H-pyridazino[4,5-b]indole-1-carboxamide] | < 10
CCc1ccc(N(CC)C(=O)Cn2nc(Cc3cccnc3)c3ccccc3c2=O)cc1 [Example 25, N-ethyl-N-(4-ethylphenyl)-2-(1-oxo-4-(pyridin-3-ylmethyl)phthalazin-2(1H)-yl)acetamide] | < 10
CCN(C(=O)Cn1nc(C(=O)Nc2ccccc2C#N)c2ccccc2c1=O)c1ccc2c(c1)OC(F)(F)O2 [Example 78, N-(2-cyanophenyl)-3-(2-((2,2-difluorobenzo[d][1,3]dioxol-5-yl)(ethyl)amino)-2-oxoethyl)-4-oxo-3,4-dihydrophthalazine-1-carboxamide] | 10 to 20
CCN(C(=O)c1nn(-c2ccc(C)cc2)c(=O)c2c1c1ccccc1n2C)c1cc(Cl)ccc1C(=O)O [Example 134, 4-chloro-2-(N-ethyl-5-methyl-4-oxo-3-(p-tolyl)-4,5-dihydro-3H-pyridazino[4,5-b]indole-1-carboxamido)benzoic acid] | < 10

Second part, the molecule after the results:

EC50 [µM] | Molecule
< 10 | CCN(C(=O)Cn1nc(Cc2cccnc2)c2ccc(C)cc2c1=O)c1ccc2c(c1)OC(F)(F)O2 [Example 45, N-(2,2-difluorobenzo[d][1,3]dioxol-5-yl)-N-ethyl-2-(7-methyl-1-oxo-4-(pyridin-3-ylmethyl)phthalazin-2(1H)-yl)acetamide]
< 10 | CCN(C(=O)Cn1nc(Cc2cccnc2)c2cc(OC)ccc2c1=O)c1ccc2c(c1)OC(F)(F)O2 [Example 51, N-(2,2-difluorobenzo[d][1,3]dioxol-5-yl)-N-ethyl-2-(6-methoxy-1-oxo-4-(pyridin-3-ylmethyl)phthalazin-2(1H)-yl)acetamide]
< 10 | CCN(C(=O)Cn1nc(Cc2cccnc2)c2cccc(OC)c2c1=O)c1ccc2c(c1)OC(F)(F)O2 [Example 55, N-(2,2-difluorobenzo[d][1,3]dioxol-5-yl)-N-ethyl-2-(8-methoxy-1-oxo-4-(pyridin-3-ylmethyl)phthalazin-2(1H)-yl)acetamide]
< 10 | Cc1ccc(-n2nc(C(=O)N3CCCCC3)c3c4ccccc4n(C)c3c2=O)cc1 [Example 101, 5-methyl-1-(piperidine-1-carbonyl)-3-p-tolyl-3H-pyridazino[4,5-b]indol-4(5H)-one]
> 20 | Cc1ccc(-n2nc(C(=O)N(CC(=O)O)c3ccccc3)c3c4ccccc4n(C)c3c2=O)cc1 [Example 114, 2-(5-methyl-4-oxo-N-phenyl-3-(p-tolyl)-4,5-dihydro-3H-pyridazino[4,5-b]indole-1-carboxamido) acetic acid]
< 10 | CCc1ccc(N(CC)C(=O)Cn2nc(-c3cccc4cnccc34)c3ccccc3c2=O)cc1 [Example 6, N-ethyl-N-(4-ethylphenyl)-2-(4-(isoquinolin-5-yl)-1-oxophthalazin-2(1H)-yl)acetamide]
